Experimental data published in patent publication US5750504A, “Antimicrobial proteins” (Zeneca Agrochemicals, priority 1996, dated 1998).

Key:
Type in all cases: cell-based
Acremonium hyalinum = assay: Antifungal activity assay (microspectrophotometry); details: strain FAJ98, host Musa, inoculum Sp, period of incubation in AFP-solution 64
Experimental: (§1) Antifungal activity was measured by microspectrophotometry as previously described (Broekaert, 1990, FEMS Microbiol Lett, 69:55-60). Routinely, tests were performed with 20 μl of a (filter-sterilized) test solution and 80 μl of a suspension of fungal spores (2×10^4 spores/ml) in half strength potato dextrose broth (1/2 PDB). […] Control microcultures contained 20 μl of sterile distilled water and 80 μl of the fungal spore suspension.
(§2) Unless otherwise stated the test organism was Fusarium culmorum (strain IMI 180420) and incubation was done at 25° C. for 48 hours. Percent growth inhibition is defined as 100 times the ratio of the corrected absorbance of the control microculture minus the corrected absorbance of the test microculture over the corrected absorbance at 595 nm of the control microculture. The corrected absorbance values equal the absorbance at 595 nm of the culture measured after 48 hours minus the absorbance at 595 nm measured after 30 min.
(§3) The antifungal potency of the purified proteins was assessed on different plant pathogenic fungi, using the assay described in Example 1. Growth of fungi, collection and harvest of fungal spores and preparation of mycelial fragments were done as previously described (Broekaert et al, 1990, FEMS Microbiol Lett, 69:55-60). Serial dilutions of the antifungal proteins were applied to the fungi, either using growth medium SMF- (the synthetic growth medium of Example 1), medium SMF+ (medium SMF- supplemented with 1 mM CaCl2 and 50 mM KCl), growth medium 1/2 PDB- (half strength potato dextrose broth as in Example 1) or growth medium 1/2 PDB+ (medium 1/2 PDB- supplemented with 1 mM CaCl2 and 50 mM Kcl). The percent growth inhibition was measured by microspectrophotometry. The concentration required for 50% growth inhibition after 48 h of incubation (IC50 value) was calculated from the dose-reponse curves.
(§4) The abbreviations used are: IC50 =concentration required for 50% growth inhibition determined as described in Example 1; ND=not determined; Sp=spores; PrSp=spores pregerminated in the medium for 24 hours; MF=mycelial fragments preincubated for 48 hours in the medium prior to addition of the proteins; BHR=broad host range; SF=saprophytic fungus; SMF-=synthetic growth medium as described in Example 1; SMF+=SMF- supplemented with 1 mM CaCl2 and 50 mM KCl; 1/2PDB-=half strength potato dextrose broth as described in Example 1; 1/2PDB+=1/2PDB- supplemented with 1 mM CaCl2 and 50 mM KCl.

Alternaria brassicola = assay: Antifungal activity assay (microspectrophotometry); details: strain MUCL20297, host Brassica, inoculum Sp, period of incubation in AFP-solution 48
Experimental: as §1, §2, §3, §4

Curvularia affinis = assay: Antifungal activity assay (microspectrophotometry); details: strain FAJ97, host Musa, inoculum Sp, period of incubation in AFP-solution 40
Experimental: as §1, §2, §3, §4

Gloeosporium musarum = assay: Antifungal activity assay (microspectrophotometry); details: for IC50: inoculum Sp, period of incubation in AFP-solution 40
Experimental: as §1, §2, §3, §4

Glomerella cingulata = assay: Antifungal activity assay (microspectrophotometry); details: strain FAJ76, host Musa, inoculum Sp, period of incubation in AFP-solution 64
Experimental: as §1, §2, §3, §4

Eschericia coli HB101 = assay: Antibacterial activity assay (microspectrophotometry); details: tested at 200 μg/ml
Experimental: (§5) Antibacterial activity was measured microspectrophotometrically as follows. A bacterial suspension was prepared by inoculating soft nutrient agarose (tryptone, 10 g/l; Seaplaque agarose (FMC), 5 g/l). Aliquots (80 μl) of the bacterial suspension (10^5 colony forming units per ml) were added to filter-sterilized samples (20 μl) in flat-bottom 96-well microplates. The absorbance at 595 nm of the culture was measured with the aid of a microplate reader after 30 minutes and 24 hours of incubation at 28° C. Percent growth inhibition was calculated as described above for the antifungal activity assay.
(§6) The antibacterial activities of Ah-AMP1 and Hs-AFP1 were measured on four gram positive bacteria (Bacillus subtilis JHCC 553331; Micrococcus luteus ATCC 93411; Staphylococcus aureus ATCC 25923; Streptococcus feacolis ATCC 29212) and two gram negative bacteria (Eschericia coli HB101 and Proteus vulgaris JHCC 558711).

[1] = tested on: Micrococcus luteus ATCC 93411; assay: as above; details: tested at 200 μg/ml
Experimental: as §5, §6

[2] = tested on: Proteus vulgaris JHCC 558711; assay: as above; details: tested at 200 μg/ml
Experimental: as §5, §6

[3] = tested on: Staphylococcus aureus ATCC 25923; assay: as above; details: tested at 200 μg/ml
Experimental: as §5, §6

[4] = tested on: Streptococcus feacolis ATCC 29212; assay: as above; details: tested at 200 μg/ml
Experimental: as §5, §6

Substance	IC50 (Acremonium hyalinum; medium SMF+) [µg/mL]	IC50 (Acremonium hyalinum; medium SMF-) [µg/mL]	IC50 (Alternaria brassicola; medium SMF+) [µg/mL]	IC50 (Alternaria brassicola; medium SMF-) [µg/mL]	IC50 (Curvularia affinis; medium SMF+) [µg/mL]	IC50 (Curvularia affinis; medium SMF-) [µg/mL]	reduction of activity in medium SMF- versus SMF+ (Gloeosporium musarum; on Gloeosporium musarum)	IC50 (Gloeosporium musarum; strain FAJ86, host Muaa, medium SMF+) [µg/mL]	IC50 (Gloeosporium musarum; strain FAJB6, host Musa, medium SMF-) [µg/mL]	IC50 (Glomerella cingulata; medium SMF+) [µg/mL]	IC50 (Glomerella cingulata; medium SMF-) [µg/mL]	inhibition of bacterial growth (Eschericia coli HB101)	inhibition of bacterial growth [1]	inhibition of bacterial growth [2]	inhibition of bacterial growth [3]	inhibition of bacterial growth [4]
Ah-AMP1: Aesculus hippocastanum antimicrobial protein 1; 5 kDa polypeptide purified from seeds, 50 amino acids, SEQ ID NO 2 (LCNERPSQTWSGNCGNTAHCDKQCQDWEKASHGACHKRENHWKCFCYFNC)	12.5	< 0.75	12	1.5	25	0.75	more than ten-fold	12.5	< 0.75	12.5	< 0.75	–	–	–	–	–
Hs-AFP1: Heuchera sanquinea antifungal protein 1; 5 kDa polypeptide purified from seeds, 54 amino acids, SEQ ID NO 1 (DGVKLCDVPSGTWSGHCGSSSKCSQQCKDREHFAYGGACHYQFPSVKCFCKRQC)	–	–	–	–	–	–	–	–	–	–	–	did not inhibit the growth	did not inhibit the growth	did not inhibit the growth	did not inhibit the growth	did not inhibit the growth
